Reference: patent publication US20250011311A1, “AMIDO HETEROAROMATIC COMPOUNDS” (AstraZeneca AB, priority 2022, published 2025)
pIC50: −log10 of the molar value.

What was measured:
[1] = molecular target: recombinant 17bHSD4 (M1-N311) (Homo sapiens (Human), UniProt P51659); assay: In Vitro 17bHSD4 Enzyme Assay; assay type: biochemical; details: 40 nM 17bHSD4, 0.125 mM NAD, 15 μM Estradiol, 1.5 h; NADH fluorescence; read-out: 17HSD17b4 Enzyme assay IC50
[2] = molecular target: recombinant 17bHSD13 (N2-K300) (Homo sapiens (Human), UniProt Q7Z5P4); assay: In Vitro 17bHSD13 Enzyme Assay; assay type: biochemical; details: 80 nM 17bHSD13, 0.5 mM NAD, 20 μM Estradiol, 2.5 h; estradiol to estrone by LC-MS/MS
Sequence of recombinant 17bHSD13 (N2-K300) (Q7Z5P4 2-300): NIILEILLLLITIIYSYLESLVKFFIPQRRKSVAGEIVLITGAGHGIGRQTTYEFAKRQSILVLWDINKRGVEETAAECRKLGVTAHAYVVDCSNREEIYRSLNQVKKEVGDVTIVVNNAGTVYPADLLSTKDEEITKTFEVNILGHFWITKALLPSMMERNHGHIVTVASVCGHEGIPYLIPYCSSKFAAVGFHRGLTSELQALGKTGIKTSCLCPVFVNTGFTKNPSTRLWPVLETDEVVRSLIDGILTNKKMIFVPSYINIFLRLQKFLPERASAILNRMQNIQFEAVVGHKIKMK
How it was run: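 Human 17bHSD13 (N2-K300, 80 nM) with 0.5 mM NAD, 20 μM estradiol and varied compound in 50 mM Tris-Cl pH 7.4, 5 mM EDTA, 0.01% DDM. Estrone/(estrone+estradiol) ratio read by LC-MS/MS (APCI, positive MRM). Inhibition normalised to DMSO and a known-inhibitor control; IC50 from curve fit.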

human hepatocytes = assay: Assay A: Metabolic Stability in Human Hepatocytes; assay type: in vitro ADME; details: cryopreserved human hepatocytes, 10^6 viable cells/mL, 1 μM compound, 37° C.
Experimental: Assay A: Metabolic Stability in Human Hepatocytes
Hepatocyte metabolic stability was determined in accordance with the method described by Jacobson et al., An optimized automated assay for determination of metabolic stability using hepatocytes: assay validation, variance component analysis, and in vivo relevance. Assay Drug Dev Technol 2007, 5 (3), 403-415. DOI: 10.1089/adt.2007.059, which is incorporated herein by reference. Cryopreserved hepatocytes at a concentration of 10^6 viable cells/mL were used. After thawing, hepatocytes were incubated for 10 min to warm to 37° C. and test compounds, dissolved in acetonitrile, were added to give a final concentration of 1 μM. At 0.5, 5, 15, 30, 45, 60, 80, 100 and 120 min, the incubation system was mixed and 20 μL aliquots were transferred at each time point to wells in a separate plate filled with 80 μL MeCN to stop the reaction. The quenching plate was then vortexed followed by centrifugation, and supernatants were analyzed by LC-MS/MS. Peak areas were determined from extracted ion chromatograms, and the in vitro intrinsic clearance (in vitro CLint, in μL/min/10^6 cells) of parent compound was calculated from the slope in the regression analysis of the natural logarithm of parent concentration vs time curve.

Sequence of recombinant 17bHSD4 (M1-N311) (P51659 1-311): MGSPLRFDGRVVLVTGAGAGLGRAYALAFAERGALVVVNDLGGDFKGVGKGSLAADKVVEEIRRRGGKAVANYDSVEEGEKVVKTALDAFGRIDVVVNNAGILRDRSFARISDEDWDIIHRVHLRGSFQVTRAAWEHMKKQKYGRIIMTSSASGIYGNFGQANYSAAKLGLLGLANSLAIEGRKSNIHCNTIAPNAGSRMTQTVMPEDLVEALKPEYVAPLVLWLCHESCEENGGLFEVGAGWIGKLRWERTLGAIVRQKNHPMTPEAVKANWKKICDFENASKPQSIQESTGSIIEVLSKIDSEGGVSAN

In the case of `O=C(c1noc(-c2cc(F)c(F)c(O)c2F)n1)N1CCO[C@H]2CCC[C@@H]21` [Example 115, ((4aS,7aS)-Hexahydrocyclopenta[b][1,4]oxazin-4(4aH)-yl)(5-(2,4,5-trifluoro-3-hydroxyphenyl)-1,2,4-oxadiazol-3-yl)methanone], the pIC50 [1] was less than 4.30, the pIC50 [2] was 6.81 and the “Assay A: Human Heps Met Clint GMean CLint (μl/min/1E6)” value (human hepatocytes) was 6.2 μl/min/1E6.

With `O=C(c1noc(-c2ccc(F)c(O)c2)n1)N1CC[C@H](c2ccccc2)C1` [Example 11, (R)-(5-(4-Fluoro-3-hydroxyphenyl)-1,2,4-oxadiazol-3-yl)(3-phenylpyrrolidin-1-yl)methanone] the pIC50 [1] was less than 4.30, the pIC50 [2] was 7.16 and the “Assay A: Human Heps Met Clint GMean CLint (μl/min/1E6)” value (human hepatocytes) was greater than 300 μl/min/1E6.

Molecule `C[C@@H]1CN(C(=O)c2ccc(-c3cc(F)c(F)c(O)c3F)s2)C[C@H](C)O1` [Example 3, ((2R,6S)-2,6-Dimethylmorpholino)(5-(2,4,5-trifluoro-3-hydroxyphenyl)thiophen-2-yl)methanone] has a pIC50 [1] of 4.50 and a pIC50 [2] of 7.44.

For `CC1CN(C(=O)c2noc(-c3cc(F)c(F)c(O)c3F)n2)CC2(CCC2)O1` (racemic) [Example 123, (6-Methyl-5-oxa-8-azaspiro[3.5]nonan-8-yl)(5-(2,4,5-trifluoro-3-hydroxyphenyl)-1,2,4-oxadiazol-3-yl)methanone], the pIC50 [1] was 4.49, the pIC50 [2] was 7.11 and the “Assay A: Human Heps Met Clint GMean CLint (μl/min/1E6)” value (human hepatocytes) was 8.3 μl/min/1E6.

In the case of `O=C(c1ccc(-c2cc(F)c(F)c(O)c2F)s1)N1CC[C@H](c2ccccc2)C1` [Example 33, (R)-(3-Phenylpyrrolidin-1-yl)(5-(2,4,5-trifluoro-3-hydroxyphenyl)thiophen-2-yl)methanone], the pIC50 [1] was 5.07, the pIC50 [2] was 7.47 and the “Assay A: Human Heps Met Clint GMean CLint (μl/min/1E6)” value (human hepatocytes) was 124.3 μl/min/1E6.

For `C[C@@H]1CN(C(=O)c2noc(-c3c(F)c(O)c(F)c(F)c3I)n2)C[C@H](C)O1` [Example 108, ((2S,6R)-2,6-Dimethylmorpholino)(5-(2,4,5-trifluoro-3-hydroxy-6-iodophenyl)-1,2,4-oxadiazol-3-yl)methanone], the pIC50 [1] was less than 4.30, the pIC50 [2] was 7.10 and the “Assay A: Human Heps Met Clint GMean CLint (μl/min/1E6)” value (human hepatocytes) was 8.8 μl/min/1E6.

For `O=C(c1noc(-c2cc(F)c(F)c(O)c2F)n1)N1CCN(CCCOc2ccc(F)cc2)CC1` [Example 57, (4-(3-(4-Fluorophenoxy)propyl)piperazin-1-yl)(5-(2,4,5-trifluoro-3-hydroxyphenyl)-1,2,4-oxadiazol-3-yl)methanone], the pIC50 [1] was 4.49, the pIC50 [2] was 7.06 and the “Assay A: Human Heps Met Clint GMean CLint (μl/min/1E6)” value (human hepatocytes) was 9.5 μl/min/1E6.

In the case of `COc1cccc(N2CCN(C(=O)c3noc(-c4cc(F)c(F)c(O)c4F)c3C#N)CC2)c1` [Example 16, 3-(4-(3-Methoxyphenyl)piperazine-1-carbonyl)-5-(2,4,5-trifluoro-3-hydroxyphenyl)isoxazole-4-carbonitrile], the pIC50 [1] was 4.81, the pIC50 [2] was 6.86 and the “Assay A: Human Heps Met Clint GMean CLint (μl/min/1E6)” value (human hepatocytes) was 56.8 μl/min/1E6.

With `C[C@@H]1CN(C(=O)c2cc(-c3cc(F)c(F)c(O)c3F)on2)C[C@H](C)O1` [Example 89, ((2R,6S)-2,6-Dimethylmorpholino)(5-(2,4,5-trifluoro-3-hydroxyphenyl)isoxazol-3-yl)methanone] the pIC50 [1] was less than 4.30, the pIC50 [2] was 6.77 and the “Assay A: Human Heps Met Clint GMean CLint (μl/min/1E6)” value (human hepatocytes) was 14.6 μl/min/1E6.

`Cn1nnc(-c2cnc(N3CCN(C(=O)c4noc(-c5cc(F)c(F)c(O)c5F)n4)CC3)c(Cl)c2)n1` [Example 67, (4-(3-Chloro-5-(2-methyl-2H-tetrazol-5-yl)pyridin-2-yl)piperazin-1-yl)(5-(2,4,5-trifluoro-3-hydroxyphenyl)-1,2,4-oxadiazol-3-yl)methanone] was tested, and the pIC50 [1] was 5.40, the pIC50 [2] was 7.10 and the “Assay A: Human Heps Met Clint GMean CLint (μl/min/1E6)” value (human hepatocytes) was 6.6 μl/min/1E6.

Work on `C[C@@H]1C[C@H](C)CN(C(=O)c2nc(-c3cc(F)c(F)c(O)c3F)no2)C1` [Example 111, ((3R,5S)-3,5-Dimethylpiperidin-1-yl)(3-(2,4,5-trifluoro-3-hydroxyphenyl)-1,2,4-oxadiazol-5-yl)methanone] yielded a pIC50 [1] of less than 4.30 and a pIC50 [2] of 7.03.
